Compound | melting point [°C]
CCOC(=O)c1cc2c3n(ccc-2n1)CC=N3 | 154 to 156
CCc1nc2c(cnn2CC)c(NC2CCOCC2)c1CNC(=O)c1cccc(C(=O)NCc2ccc(C)c(-c3cccc(CN4CCNCC4)c3)c2)c1 | 135 to 138
COC(=O)c1ccccc1-c1cc(-c2ccc(C(F)(F)F)cc2)no1 | 90.5 to 92
CON(C)C(=O)Nc1ccc(OCCc2ccc(C)cc2C)cc1 | 95 to 95.5
O=C(Nc1ccc(Sc2c(O)c3c(Cl)cc(Cl)cc3[nH]c2=O)cc1)c1ccco1 | 296 to 300
Cc1sc(-n2cccc2)c(C(=O)N2CCCC2)c1C | 100
Cc1cnc2[nH]cc(/C=C3\N=C(NCC(C)C)NC3=O)c2c1 | 338 to 339
Cc1c2n(c3ccccc13)C(=O)C(=Cc1ncn(S(=O)(=O)N(C)C)c1C)CC2 | 200 to 205
Cc1ccnc2c([N+](=O)[O-])cc3c(c12)OCO3 | 183 to 185
CC(NC1=NS(=O)(=O)c2ccc(Cl)cc2N1)C(C)(C)C (centres undefined) | > 220
COC(=O)c1ccc(S(=O)(=O)N2CC[C@H](OS(C)(=O)=O)C2)n1C | 79 to 81
N#CC1=CCC23OCOC2=C1c1c(C#N)cccc1OCO3 (centres undefined) | 213 to 215
CC1(C)C=Cc2c(ccc3c2C(=O)C(Br)=C(O)C3=O)O1 | 202 to 205
CC1CN(C(=O)N(c2ccccc2)c2ccccc2)CCN1C(=O)N(c1ccccc1)c1ccccc1 (centres undefined) | 200 to 202
COC(=O)CCC(=O)c1ccccc1N | 50 to 51
COc1ccc(N(N)Cc2ccc(Cl)cc2)cc1 | 55
NC(=O)CN(c1ccc(Cl)cc1C(O)c1ccccc1Cl)S(=O)(=O)c1ccc(Cl)c(Cl)c1 (centres undefined) | 135
CN(CCCN1C(=O)c2cccc3cc4ccccc4c(c23)C1=O)CCCN1C(=O)c2cccc3cc4ccccc4c(c23)C1=O | 194
CC1CCN(CCCC(=O)c2ccc3c(c2)C(=O)c2cc(C(=O)CCCN4CCC(C)CC4)ccc2-3)CC1 | 178 to 180
COc1ccc(CCNC(=O)C(F)(F)F)cc1S(=O)(=O)N=CN(C)C | 143 to 144
CC(=O)c1ccc(Nc2cccc(-c3cnc(N)nc3)c2)c(N)c1 | 228 to 230
COC(=O)C12COc3cc(C(F)(F)F)ccc3C1=NN(C(=O)Nc1ccc(Cl)cn1)C2 (centres undefined) | 196 to 198
NC(=O)c1c(Cl)c(-c2ccccc2)n2c1CN(C(=O)c1ccc(-c3ccccn3)s1)CC2 | 232
CC#CCOc1cc(Cc2cccc(F)c2)ncn1 | 51.5
CCC(=O)Nc1ccc(C(=O)CC)cc1 | 154 to 155

Compound | melting point [°C]
Cc1nc(N2C[C@@H](C)N(Cc3ccc(F)cc3)C2=O)sc1C(=O)NCc1cc(F)cc(F)c1 | 159 to 160
CC(O)N(C)C(=O)c1cc(C(C)(C)C)c(O)c(C(C)(C)C)c1 (centres undefined) | 161 to 164
S=C(Nc1cccc2c1[nH]c1ccccc12)SCc1ccccc1 | 66 to 68
O=C(O)C(CC1CCCCC1)NS(=O)(=O)c1ccc(Cl)cc1 (racemic) | 127 to 129
COC(=O)C#CCOC(N)=O | 113 to 114
Cc1cc(Nc2nc(Cl)nc(Nc3cc(C)c(O)c(C(C)(C)C)c3)n2)cc(C(C)(C)C)c1O | 214
CCN(CC)C(=O)COC(=O)c1cc(S(N)(=O)=O)c(Cl)cc1NCc1ccco1 | 135 to 136
Cc1ccc(S(=O)(=O)NC[C@H]2CN3C(=O)C[C@H]3O2)cc1 (racemic) | 123 to 125
Clc1cccc(Nc2n[nH]c3ncnc(NCc4ccccc4)c23)c1 | 216 to 218
CC(=O)[C@@H]1CC[C@@H](C)C[C@H]1O | 46 to 46.5
COC(=O)C1(S(=O)(=O)N2CCC(=O)CC2)CCOCC1 | 158 to 160
CCCCCCC(=O)N[C@H](CCC(=O)O)C(=O)O | 92 to 96
Cc1ccc(S(=O)(=O)c2ccc3c(c2)CCCC3)cc1 | 130 to 132
O=C(O)c1cc(O)c(C(=O)c2ccc(Cl)cc2)c([N+](=O)[O-])c1 | 266 to 268
CS(=O)(=O)c1ccc(C(Cc2cccc(F)c2)C(=O)Nc2cnc(CO)cn2)cc1 (centres undefined) | 82.8 to 98.7
C=CCOc1ccc(C(=O)C=Cc2cccnc2)c(O)c1 | 115 to 117
Cc1c(-c2ccccc2)nn(C(C)(C)C(=O)N(C)C)c1C | 115 to 117
CC(C)OCCNS(=O)(=O)NC(=O)OCCCc1ccc(OCc2ccco2)cc1Oc1ncc(C(F)(F)F)cc1Cl | 118 to 120
CCCCN(CCCC)c1ccc(C=CC2=C(C#N)C(=C(C#N)C#N)OC2(C)C(F)(F)F)c(OC)c1 (centres undefined) | 211 to 213
COc1nccc(C)c1NC(=O)OC(C)(C)C | 93 to 95
CN(C)Cc1cc([N+](=O)[O-])cc2c(Nc3cccc(Br)c3)c(C#N)cnc12 | 223 to 226
COC(=O)c1nc2cc(OC)ccc2c(O)c1C(=O)OC | 202 to 204
c1cc2c(N3CCNCC3)csc2cn1 | 126 to 128
COc1ccc(N2CCN(c3ccc(N4C(=O)NC(C)(C)C4=O)cc3)CC2)cc1 | 255
CC(C)Cn1c(=O)n(C)c(=O)c2c(Sc3ccccn3)c(Cc3cccc4ccccc34)sc21 | 148 to 149

Compound | melting point [°C]
COc1ccc(C(=O)NNC(C)=N)cc1 | 179 to 181
CCCCOc1c(CNC(=O)OCC2c3ccccc3-c3ccccc32)n(CC(C)C)c(=O)c2ccc(-c3nc(C(=O)OCC)cs3)cc12 | 203 to 204
CCCCCCCCCCCCCCOC(=O)CS(=O)(=O)Nc1c(C(C)C)cccc1C(C)C | 53 to 55
CNS(=O)(=O)c1ccccc1Nc1nc(Nc2ccc3c(c2)CCCC(=O)N3)ncc1Cl | 276 to 282
O=C(O)C(F)c1ccc(Cl)cc1 (centres undefined) | 66 to 68
C=CCn1c(=O)c2c(nc(/C=C/c3ccc(O)c(OC)c3)n2C)n(CC=C)c1=O | 202 to 203
COc1cc2c(c3c1OC(C)(C)C3)C(c1cccc(NC(=O)CS(C)=O)c1)=NC(C)(C)C2 (centres undefined) | 198 to 201
N#C/C=C/c1cn(-c2c(Cl)cc(C(F)(F)F)cc2Cl)nc1C#N | 144 to 145
OCCCc1ccc(OCc2coc(/C=C/c3ccccc3)n2)cc1 | 95 to 96
CC(C)C(=O)N(C)C1CN(C(=O)Nc2ccc(C(F)(F)F)cc2)N=C1c1ccc(Cl)cc1 (centres undefined) | 180 to 182
CCOc1ccc(OC)c2c1CCC([N+](=O)[O-])=C2 | 90 to 92
N#CCCNC(=O)c1cccc(-c2ccc3c(c2)C(c2ccc(Cl)cc2Cl)CO3)c1 (centres undefined) | 130 to 131
COc1ccc2cc([C@H](C)C(=O)OCC(=O)N(C)CCCO[N+](=O)[O-])ccc2c1 | 104 to 105
Cc1ccccc1-c1c(C(=O)N(C)Cc2cc(C(F)(F)F)cc(C(F)(F)F)c2)c(=O)oc2ccccc12 | 130 to 131
CCCCc1nnc(S(=O)Cc2ccc(OC)cc2)n1Cc1ccc(OC(C(=O)O)c2ccccc2)cc1 (centres undefined) | 74 to 75
O=C(c1ccc(Cl)cc1)C1(n2cnc(Cl)n2)CC1 | 85
COc1cc2cc(N)cnc2cc1F | 153
O=C(O)CC1Cc2ccc(O)cc2OC1=O (centres undefined) | 174 to 175
COc1cc2cc3c(Nc4ccc(Sc5nccn5C)c(Cl)c4)c(C#N)cnc3cc2cc1O | > 300
CNC(=O)N(C)c1nnc(SCc2ccccc2)s1 | 139 to 142
COc1ccccc1C(=O)c1cccc(C(=O)O)c1 | 170 to 172
O=CNc1ccc(SC(CCc2ccc(Cl)cc2)Cn2ccnc2)cc1 (centres undefined) | 91 to 94
CCc1nc2cc(C(F)(F)F)c(Cl)cc2n1-c1ccc(CCOC(=O)NS(=O)(=O)c2cn(C)cn2)cc1 | 204
CS(=O)(=O)OCCC1c2ccccc2COc2ccccc21 (centres undefined) | 64 to 66
CCOC(=O)C1=C(C)NC(COCCn2ccnc2)=C(C(=O)OCC)C1c1ccccc1Cl (centres undefined) | 163 to 165

Compound | melting point [°C]
Cc1ccc2nc(S)oc2c1 | 209
Fc1ccc(C(F)(F)C(F)(F)c2ccccc2)c(Br)c1 | 47 to 48
Cn1ncc2c1-c1c(Oc3ccc(CC(=O)O)cc3)sc(C(N)=O)c1CC2 | 213 to 214
CON=C1C(C)(C)c2cc3nc(SCc4ncc(C)c(OC)c4C)[nH]c3cc2C1(C)C | 110 to 112
N#CC(C(N)=S)c1ccc(Cl)c(Cl)c1 (centres undefined) | 143
CC(C)(C)OC(=O)N1CCN(c2cccc3cc[nH]c23)CC1 | 150 to 151
CCOC(=O)CC(=O)NS(=O)(=O)c1ccc([N+](=O)[O-])cc1 | 97
CNC(=Nc1ccccc1N1CCCCC1)C(C)(C)C | 78
CCOC(=O)c1c(-c2cccc(Cl)c2)csc1N1C(=O)c2ccccc2C1=O | 169
COC(=O)C=C(C)C=CC1(O)C(C)=CC(=O)c2ccccc21 (centres undefined) | 147 to 148
COc1ccccc1N1CCN(C(=O)[C@@H](Cc2ccccc2)NC(=O)OC(C)(C)C)CC1 | 95 to 97
CCCCCCC(O)CNCC(O)CO (centres undefined) | 85 to 90
Cc1nc2sccn2c(=O)c1Br | 127 to 129
CCOC(=O)c1cc2cccc(OCC(O)CCl)c2o1 (centres undefined) | 95 to 97
CCOC(=O)C(O)CCn1cnc2c(Cl)nc(N)nc21 (centres undefined) | 163 to 164
COCCN1CSC(=Cc2cc(C(C)(C)C)c(O)c(C(C)(C)C)c2)C1=O | 147 to 149
Cn1nc(-c2nc(OCC(N)=O)c(Cl)cc2F)c(Cl)c1OC(F)F | 178 to 180
Cc1nc2c(OCc3ccccc3)cc(C(=O)N(C)C)cc2n1COCC[Si](C)(C)C | 118 to 120
COCCNC(=O)c1cc(-c2cccc3cc(Cc4cc(F)cc(Cl)c4)sc23)ccc1F | 84 to 85
Nc1cc(Cl)c(OCC(F)(F)F)cc1F | 40 to 41
Cc1ccccc1NC(=O)N[C@H]1C[C@@](N)(C(=O)O)[C@@H]2[C@@H](C(=O)O)[C@@H]21 (relative stereo) | > 250
Cc1cc(C)c2c(n1)-c1ccccc1C2=O | 102 to 104
COc1cc2c(cc1Nc1ncc(Cl)c(Nc3cccc(N4CCOCC4)c3)n1)CCN(CC(=O)N(C)C)CC2 | 91 to 111
Cc1nc(N)nc(N)c1CCC(C)c1cccc(-c2ccc(C(F)(F)F)cc2)c1 (centres undefined) | 67 to 68
